Experimental data as given in ChEMBL document CHEMBL5137054, “Xyloketal B Reverses Nutritional Hepatic Steatosis, Steatohepatitis, and Liver Fibrosis through Activation of the PPARα/PGC1α Signaling Pathway” (J Nat Prod, 2022).
Active and inactive are the calls of the source. The calls are words filed in the database; no cut-off is given here.

Legend:
[1] = test system: Mus musculus; experiment: Reduction in hepatic steatosis in HFD-induced C57BL/6J mouse model of NAFL assessed as reduction in serum ALT level at 20 to 40 mg/kg/day, ip administered from week 7 to week 12; format: functional, organism-based; conditions: dose 20-40 mg/kg/day, time 6.0 weeks
[2] = test system: Mus musculus; experiment: Upregulation of peroxisomal acyl-coenzyme A oxidase-1 enzyme expression in liver of HFD-induced C57BL/6J mouse model of NAFL administered intraperitoneally from week 7 to week 12 by immunoblotting analysis; format: functional; conditions: dose 20-40 mg/kg/day, route ip, time 6.0 weeks, DDE = dose-dependent effect
[3] = test system: Mus musculus; experiment: Upregulation of Cyp4a14 gene transcriptional level in HFD-induced C57BL/6J mouse model of NAFL at 20 to 40 mg/kg/day, ip administered from week 7 to week 12 by qRT-PCR analysis; format: functional, organism-based; conditions: dose 20-40 mg/kg/day, time 6.0 weeks
[4] = Toxicity in C57BL/6J mouse assessed as effect on serum AST/ALT ratio at 40 mg/kg, ip; format: organism-based; conditions: in vivo
[5] = test system: Mus musculus; experiment: Upregulation of peroxisomal acyl-coenzyme A oxidase-2 enzyme expression in liver of HFD-induced C57BL/6J mouse model of NAFL administered intraperitoneally from week 7 to week 12 by immunoblotting analysis; format: functional; conditions: dose 20-40 mg/kg/day, route ip, time 6.0 weeks, DDE = dose-dependent effect
[6] = test system: Mus musculus; experiment: Upregulation of carnitine O-palmitoyltransferase-1B enzyme expression in liver of HFD-induced C57BL/6J mouse model of NAFL administered intraperitoneally from week 7 to week 12 by immunoblotting analysis; format: functional; conditions: dose 20-40 mg/kg/day, route ip, time 6.0 weeks, DDE = dose-dependent effect
[7] = test system: Mus musculus; experiment: Upregulation of ACAA1 enzyme expression in liver of HFD-induced C57BL/6J mouse model of NAFL at 15 mg/kg/day, ip administered from week 7 to week 12 by immunoblotting analysis; format: functional, organism-based; conditions: time 6.0 weeks
[8] = Toxicity in C57BL/6J mouse assessed as effect on serum ApoE level at 40 mg/kg, ip; format: organism-based; conditions: in vivo
[9] = test system: Mus musculus; experiment: In vivo activation of PPARalpha/PGC1alpha pathway in HFD-induced C57BL/6J mouse model of NAFL assessed as increase in PPARalpha expression in liver administered intraperitoneally from week 7 to week 12 by immunoblotting analysis; format: functional, organism-based; conditions: dose 20-40 mg/kg/day, route ip, time 6.0 weeks, DDE = dose-dependent effect
[10] = test system: Mus musculus; experiment: Reduction in hepatic steatosis in HFD-induced C57BL/6J mouse model of NAFL assessed as reduction in serum AST/ALT ratio at 20 to 40 mg/kg/day, ip administered from week 7 to week 12; format: functional, organism-based; conditions: dose 20-40 mg/kg/day, time 6.0 weeks
[11] = test system: Mus musculus; experiment: Reduction in hepatic steatosis in HFD-induced C57BL/6J mouse model of NAFL assessed as increase in serum ApoE level at 20 to 40 mg/kg/day, ip administered from week 7 to week 12; format: functional, organism-based; conditions: dose 20-40 mg/kg/day, time 6.0 weeks
[12] = Toxicity in C57BL/6J mouse assessed as effect on body weight at 40 mg/kg, ip; format: organism-based; conditions: in vivo
[13] = test system: Mus musculus; experiment: Reduction in hepatic steatosis in HFD-induced C57BL/6J mouse model of NAFL assessed as reduction in serum glucose level at 20 to 40 mg/kg/day, ip administered from week 7 to week 12; format: functional, organism-based; conditions: dose 20-40 mg/kg/day, time 6.0 weeks
[14] = test system: Mus musculus; experiment: Antifibrotic activity against MCD-induced C57BL/6J mouse model of liver fibrosis assessed as reduction in collagen III level in liver at 20 to 40 mg/kg, ip administered from week 3 to week 6 by sirius red staining based light microscopic analysis; format: functional, organism-based; conditions: dose 20-40 mg/kg, time 4.0 weeks
[15] = test system: Mus musculus; experiment: Upregulation of cytochrome P450-4A10 enzyme expression in liver of HFD-induced C57BL/6J mouse model of NAFL at 15 mg/kg/day, ip administered from week 7 to week 12 by immunoblotting analysis; format: functional, organism-based; conditions: time 6.0 weeks
[16] = test system: Mus musculus; experiment: Upregulation of Acox2 gene transcriptional level in HFD-induced C57BL/6J mouse model of NAFL at 20 to 40 mg/kg/day, ip administered from week 7 to week 12 by qRT-PCR analysis; format: functional, organism-based; conditions: dose 20-40 mg/kg/day, time 6.0 weeks
[17] = test system: Mus musculus; experiment: Anti-inflammatory activity against MCD-induced C57BL/6J mouse model of nonalcoholic steatohepatitis assessed as downregulation of COX-2 expression in liver at 20 to 40 mg/kg/day, ip administered from week 3 to week 4 by immunoblotting analysis; format: functional, organism-based; conditions: dose 20-40 mg/kg/day, time 2.0 weeks
[18] = test system: Mus musculus; experiment: Upregulation of Acaa1a gene transcriptional level in HFD-induced C57BL/6J mouse model of NAFL at 20 to 40 mg/kg/day, ip administered from week 7 to week 12 by qRT-PCR analysis; format: functional, organism-based; conditions: dose 20-40 mg/kg/day, time 6.0 weeks
[19] = test system: Mus musculus; experiment: Antifibrotic activity against MCD-induced C57BL/6J mouse model of liver fibrosis assessed as reduction in MMP3 level in liver administered intraperitoneally from week 3 to week 6 by immunoblotting analysis; format: functional, organism-based; conditions: dose 20-40 mg/kg, route ip, time 4.0 weeks, DDE = dose-dependent effect
[20] = test system: Mus musculus; experiment: Upregulation of carnitine O-palmitoyltransferase-1B enzyme expression in liver of HFD-induced C57BL/6J mouse model of NAFL at 15 mg/kg/day, ip administered from week 7 to week 12 by immunoblotting analysis; format: functional, organism-based; conditions: time 6.0 weeks
[21] = test system: HepG2; experiment: Inhibition of FFA-induced lipid accumulation in human HepG2 cells incubated for 24 hrs by Oil Red O staining based spectrophotometric analysis; format: functional, cell-based; conditions: dose 50-100 µM, DDE = dose-dependent effect
[22] = test system: Mus musculus; experiment: In vivo activation of PPARalpha/PGC1alpha pathway in HFD-induced C57BL/6J mouse model of NAFL assessed as increase in PGC1alpha expression in liver administered intraperitoneally from week 7 to week 12 by immunoblotting analysis; format: functional, organism-based; conditions: dose 20-40 mg/kg/day, route ip, time 6.0 weeks
[23] = test system: Mus musculus; experiment: Reduction in hepatic steatosis in HFD-induced C57BL/6J mouse model of NAFL assessed as reduction in serum cholesterol level at 20 to 40 mg/kg/day, ip administered from week 7 to week 12; format: functional, organism-based; conditions: dose 20-40 mg/kg/day, time 6.0 weeks
[24] = test system: Mus musculus; experiment: Antifibrotic activity against MCD-induced C57BL/6J mouse model of liver fibrosis assessed as reduction in collagen I level in liver at 20 to 40 mg/kg, ip administered from week 3 to week 6 by sirius red staining based light microscopic analysis; format: functional, organism-based; conditions: dose 20-40 mg/kg, time 4.0 weeks
[25] = test system: Mus musculus; experiment: Upregulation of Acox1 gene transcriptional level in HFD-induced C57BL/6J mouse model of NAFL at 20 to 40 mg/kg/day, ip administered from week 7 to week 12 by qRT-PCR analysis; format: functional, organism-based; conditions: dose 20-40 mg/kg/day, time 6.0 weeks
[26] = test system: Mus musculus; experiment: Antifibrotic activity against MCD-induced C57BL/6J mouse model of liver fibrosis assessed as reduction in alphaSMA level in liver at 20 to 40 mg/kg, ip administered from week 3 to week 6 by […]; format: functional, organism-based; conditions: dose 20-40 mg/kg, time 4.0 weeks
[27] = test system: Mus musculus; experiment: Antifibrotic activity against MCD-induced C57BL/6J mouse model of liver fibrosis assessed as reduction in MMP2 level in liver administered intraperitoneally from week 3 to week 6 by immunoblotting analysis; format: functional, organism-based; conditions: dose 20-40 mg/kg, route ip, time 4.0 weeks, DDE = dose-dependent effect
[28] = Toxicity in C57BL/6J mouse assessed as effect on serum ALT level at 40 mg/kg, ip; format: organism-based; conditions: in vivo
[29] = Toxicity in C57BL/6J mouse assessed as effect on serum LDL level at 40 mg/kg, ip; format: organism-based; conditions: in vivo
[30] = Toxicity in C57BL/6J mouse assessed as effect on lipid droplets in hepatocytes at 40 mg/kg, ip by H&E staining analysis; format: organism-based; conditions: in vivo

## C[C@H]1CO[C@]2(C)Oc3cc(O)c4c(c3C[C@H]12)O[C@@]1(C)OC[C@H](C)[C@H]1C4
[1]
  Activity: Active
[2]
  Activity: Dde
[3]
  Activity: Active
[4]
  Activity: Non-Toxic
[5]
  Activity: Dde
[6]
  Activity: Dde
[7]
  Activity: Active
[8]
  Activity: Non-Toxic
[9]
  Activity: Dde
[10]
  Activity: Active
[11]
  Activity: Active
[12]
  Activity: Non-Toxic
[13]
  Activity: Active
[14]
  Activity: Active
[15]
  Activity: Active
[16]
  Activity: Active
[17]
  Activity: Active
[18]
  Activity: Active
[19]
  Activity: Dde
[20]
  Activity: Active
[21]
  inhibition: Dde
[22]
  Activity: Active
[23]
  Activity: Active
[24]
  Activity: Active
[25]
  Activity: Active
[26]
  Activity: Active
[27]
  Activity: Dde
[28]
  Activity: Non-Toxic
[29]
  Activity: Non-Toxic
[30]
  Activity: Non-Toxic
